According to PMC11602115 (Journal of Medicinal Chemistry, 2017):
Where two headings read alike, the source gives them in different places.

Legend:
[1] = biological target: IP (Homo sapiens, UniProt P43119); assay: HTRF cAMP assay, recombinant human IP receptor stably expressed in CHO-K1 cells; format: cell-based; design: expressed in transfected cells
Experimental: (§1) The new compounds were tested for functional agonist activity in a standard (Cisbio) cAMP assay using recombinant IP or DP1 receptors stably expressed in CHO-K1 cells. Clonal cell lines were derived following standard protocols, but receptor expression levels were kept to a minimum to preclude receptor reserve effects.
(§2) For development of cAMP accumulation assays, recombinant IP or DP1 receptors were stably expressed in CHO-K1 cells and clonal cell lines derived following standard protocols. Receptor expression levels were minimized to preclude receptor reserve effects. HTRF cAMP assays were performed according to the manufacturer’s instructions (Cisbio, cAMP Dynamic 2 assay kit; no. 62AM4PEJ). IP receptor-expressing cells were harvested, resuspended in assay buffer (PBS containing 1 mM IBMX and 0.2% BSA) at a density of 200 000 cells per mL, and dispensed into 384-well assay plates (PerkinElmer Proxiplate no. 6008280) at 5 μL per well. Test compounds were solubilized and serially diluted in DMSO using 5-fold dilutions to generate a 10-point dose–response curve with a top concentration of 10 μM. The samples were then further diluted in PBS to achieve a 2× stock. Diluted compounds were then transferred to a triplicate set of assay plates (5 μL per well). After a 1 h incubation at room temperature, 5 μL of cAMP-D2 reagent diluted in lysis buffer was added to each well followed by 5 μL of cryptate reagent. Plates were then incubated at room temperature for 1 h prior to reading. Time-resolved fluorescence measurements were collected on PerkinElmer Envision or BMG Pherastar microplate readers.

[2] = biological target: rat IP (Rattus norvegicus, UniProt P43253); assay: HTRF cAMP assay, recombinant rat IP receptor; format: cell-based; design: expressed in transfected cells; conditions: for EC50: HTRF (cAMP) rat IP receptor assay, mean of at least three determinations; for Emax: read-out: rIP % IA
Experimental: as §1, §2

[3] = system: human platelet; assay: Inhibition of ADP-induced human platelet aggregation; format: cell-based; conditions: aggregation induced by 2.5 μM ADP, mean of at least two determinations
Experimental: Such aggregated and activated platelets produce vasoactive substances such as thromboxane and serotonin that may cause harmful vasoconstriction and vascular remodeling.[13] […] This secondary assay was carried out as previously described,[14] with aggregation induced by 2.5 μM ADP in the presence or absence of IP receptor agonists.

[4] = biological target: T1, human DP1 receptor (Homo sapiens, UniProt Q13258); assay: HTRF cAMP assay, recombinant human DP1 receptor in CHO-K1 cells; format: cell-based; conditions: for Emax: CHO-K1, intrinsic activity relative to 1 μM PGD2, read-out: hDP1 % IA; for EC50: HTRF (cAMP) human DP1 receptor assay, mean of at least three determinations, read-out: EC50 hDP1
T1 construct: expressed in transfected cells
T1 sequence (Q13258 1-359): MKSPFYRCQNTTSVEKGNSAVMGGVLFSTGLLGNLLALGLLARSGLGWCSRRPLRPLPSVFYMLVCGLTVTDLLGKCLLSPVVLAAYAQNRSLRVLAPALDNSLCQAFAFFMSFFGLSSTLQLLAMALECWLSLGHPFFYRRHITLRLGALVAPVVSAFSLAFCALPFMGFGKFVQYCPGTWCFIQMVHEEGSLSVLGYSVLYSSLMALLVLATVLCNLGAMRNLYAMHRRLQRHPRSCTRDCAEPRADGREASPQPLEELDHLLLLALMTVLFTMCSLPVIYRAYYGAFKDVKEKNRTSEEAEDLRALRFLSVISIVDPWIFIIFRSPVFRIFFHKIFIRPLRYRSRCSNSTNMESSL
Experimental: as §1, §2

[5] = Stability in rat microsome preparations; format: in vitro ADME; conditions: incubation at 37 °C, rat microsomes; read-out: rat MS, T1/2
Source text: (§3) Table 1 Screening Data for Selected Analogues ^a | column: human and rat MS, T1/2 (min) ^g

[6] = Stability in human microsome preparations; format: in vitro ADME; conditions: incubation at 37 °C, human microsomes; read-out: human MS, T1/2
Source text: as §3

[7] = HTRF (cAMP) human IP receptor assay; mean of at least three determinations

IP, sequence (P43119 whole entry): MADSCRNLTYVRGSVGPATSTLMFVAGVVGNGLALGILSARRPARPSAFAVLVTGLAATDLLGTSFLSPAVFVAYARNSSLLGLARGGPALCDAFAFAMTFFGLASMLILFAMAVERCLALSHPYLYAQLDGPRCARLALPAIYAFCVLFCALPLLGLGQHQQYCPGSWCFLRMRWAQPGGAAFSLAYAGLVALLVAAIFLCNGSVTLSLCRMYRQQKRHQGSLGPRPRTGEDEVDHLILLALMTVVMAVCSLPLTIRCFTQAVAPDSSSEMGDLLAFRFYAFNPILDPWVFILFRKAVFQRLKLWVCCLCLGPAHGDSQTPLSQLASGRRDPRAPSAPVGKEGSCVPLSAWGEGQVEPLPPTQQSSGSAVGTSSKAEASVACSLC
rat IP, sequence (P43253 whole entry): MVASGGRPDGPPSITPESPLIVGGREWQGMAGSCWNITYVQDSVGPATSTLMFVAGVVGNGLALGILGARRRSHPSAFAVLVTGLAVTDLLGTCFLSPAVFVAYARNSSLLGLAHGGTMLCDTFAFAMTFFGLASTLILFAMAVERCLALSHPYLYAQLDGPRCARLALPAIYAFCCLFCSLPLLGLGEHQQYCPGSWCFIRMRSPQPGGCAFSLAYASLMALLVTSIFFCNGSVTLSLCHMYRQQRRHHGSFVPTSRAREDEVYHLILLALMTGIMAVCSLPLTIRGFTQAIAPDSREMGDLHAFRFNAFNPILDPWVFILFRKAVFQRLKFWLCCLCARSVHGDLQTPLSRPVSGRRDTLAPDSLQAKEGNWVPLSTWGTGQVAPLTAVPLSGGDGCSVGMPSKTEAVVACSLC

Emax ([1]; CHO-K1; read-out: hIP % IA) | EC50 [1, 7] | EC50 [2] | Emax [2] | IC50 [3] | Emax [4] | EC50 [4] | half-life [5] | half-life [6] | SMILES | Emax ([1]; CHO-K1, read-out: hIP % IA)
65% | 41 nM | > 10000 nM | – | – | 45% | 860 nM | – | – | O=C(O)COC[C@H]1CC[C@H](COC(=O)N(c2ccc(F)cc2)c2ccc(F)cc2)CC1 [5r, 2-(((1r,4r)-4-((Bis(4-fluorophenyl)carbamoyloxy)methyl)cyclohexyl)methoxy)acetic Acid] | –
70% | 18.5 nM | 3190 nM | 44% | – | 35% | 1140 nM | > 1 h | > 1 h | O=C(O)COC[C@H]1CC[C@H](COC(=O)N(c2ccc(Cl)cc2)c2cccc(F)c2)CC1 [5q, 2-(((1r,4r)-4-(((4-Chlorophenyl)(3-fluorophenyl)carbamoyloxy)methyl)cyclohexyl)methoxy)acetic Acid] | –
75% | 23 nM | 2720 nM | 56% | – | – | > 10000 nM | > 1 h | > 1 h | O=C(O)COC[C@H]1CC[C@H](COC(=O)N(c2cccc(F)c2)c2ccc(Cl)c(F)c2)CC1 [5t, 2-(((1r,4r)-4-(((4-Chloro-3-fluorophenyl)(3-fluorophenyl)carbamoyloxy)methyl)cyclohexyl)methoxy)acetic Acid] | –
93% | 25 nM | – | – | – | – | – | – | – | O=C(O)COC[C@H]1CC[C@H](COC(=O)N(c2ccc(O)cc2)c2ccc(Cl)cc2)CC1 [M2] | –
70% | 5.2 nM | 1570 nM | 60% | 43 nM | 65% | 1030 nM | – | – | COc1ccc(N(C(=O)OC[C@H]2CC[C@H](COCC(=O)O)CC2)c2cccc(F)c2)cc1 [5p, 2-(((1r,4r)-4-(((3-Fluorophenyl)(4-methoxyphenyl)carbamoyloxy)methyl)cyclohexyl)methoxy)acetic Acid] | –
78% | 1050 nM | – | – | – | – | – | – | – | O=C(COC[C@H]1CC[C@H](COC(=O)N(c2ccc(O)cc2)c2ccc(Cl)cc2)CC1)NCCS(=O)(=O)O [M3] | –

More lines, now with the values behind:

SMILES | Emax ([1]; CHO-K1; read-out: hIP % IA) | EC50 [1, 7] | EC50 [2] | Emax [2] | IC50 [3] | Emax [4] | EC50 [4] | half-life [5] | half-life [6] | Emax ([1]; CHO-K1, read-out: hIP % IA)
COc1ccc(N(C(=O)OC[C@H]2CC[C@@H](COCC(=O)O)CC2)c2ccccc2)cc1 [5f, 2-(((1s,4s)-4-(((4-Methoxyphenyl)(phenyl)carbamoyloxy)methyl)cyclohexyl)methoxy)acetic Acid] | 16% | 1630 nM | > 10000 nM | – | – | – | – | – | – | –
O=C(O)COC[C@H]1CC[C@@H](COC(=O)N(c2ccccc2)c2cccc(F)c2)CC1 [5h, 2-(((1s,4s)-4-(((3-Fluorophenyl)(phenyl)carbamoyloxy)methyl)cyclohexyl)methoxy)acetic Acid] | 79% | 62 nM | 561 nM | 88% | 93 nM | 61% | 3870 nM | – | – | –
Cc1ccc(N(C(=O)OC[C@H]2CC[C@H](COCC(=O)O)CC2)c2ccccc2)cc1 [5k, 2-(((1r,4r)-4-((Phenyl(p-tolyl)carbamoyloxy)methyl)cyclohexyl)methoxy)acetic Acid] | 81% | 3.9 nM | 174 nM | 99% | 39 nM | 53% | 320 nM | – | – | –
O=C(O)COC[C@H]1CC[C@@H](COC(=O)N(c2ccccc2)c2ccc(Cl)cc2)CC1 [5d, 2-(((1s,4s)-4-(((4-Chlorophenyl)(phenyl)carbamoyloxy)methyl)cyclohexyl)methoxy)acetic Acid] | – | – | 560 nM | 88% | – | 60% | 980 nM | – | – | 80%
O=C(O)COC[C@H]1CC[C@@H](COC(=O)N(c2ccccc2)c2ccccc2)CC1 [5b, 2-(((1s,4s)-4-((Diphenylcarbamoyloxy)methyl)cyclohexyl)methoxy)acetic Acid] | 81% | 54 nM | 472 nM | 94% | 54 nM | 68% | 1710 nM | – | – | –
